Laboratory results reported in PMC12300992, “A Machine Learning Platform for Isoform-Specific Identification and Profiling of Human Carbonic Anhydrase Inhibitors” (Pharmaceuticals, 2025).

Assays:
hCA I = hCA I (Homo sapiens, UniProt P00915); assay: CO2 hydrase stopped-flow inhibition assay, hCA I; settings: for experimental activity class hCA I: Table S2, Ki threshold of 1 µM
Description: (§1) The ionic strength was maintained at a constant using 0.1 M Na2SO4 or NaClO4, as these anions are non-inhibitory at the concentration employed. […] Inhibitor stock solutions were prepared at a concentration of 10 mM in 1:1, v/v DMSO/water mixture and were subsequently diluted up to 0.01 nM in the assay buffer. To determine the inhibition constant (Ki), at least seven different inhibitor concentrations were tested. The enzyme and the inhibitor were pre-incubated for 15 min to allow the complete formation of the enzyme-inhibitor complex. Each inhibitor concentration was tested in triplicate, and the values reported throughout the study represent the mean of these replicates. […] These enzyme concentrations were measured by titration with ethoxzolamide and spectrophotometrically for CA I and II.

hCA II = hCA II (Homo sapiens, UniProt P00918); assay: CO2 hydrase stopped-flow inhibition assay, hCA II; settings: for experimental activity class hCA II: Table S2, Ki threshold of 1 µM
Description: as §1

hCA IX = hCA IX (Homo sapiens, UniProt Q16790); assay: CO2 hydrase stopped-flow inhibition assay, hCA IX; settings: for experimental activity class hCA IX: Table S2, Ki threshold of 1 µM
Description: as §1

hCA XII = hCA XII (Homo sapiens, UniProt O43570); assay: CO2 hydrase stopped-flow inhibition assay, hCA XII; settings: for experimental activity class hCA XII: Table S2, Ki threshold of 1 µM
hCA XII, sequence (O43570 25-354): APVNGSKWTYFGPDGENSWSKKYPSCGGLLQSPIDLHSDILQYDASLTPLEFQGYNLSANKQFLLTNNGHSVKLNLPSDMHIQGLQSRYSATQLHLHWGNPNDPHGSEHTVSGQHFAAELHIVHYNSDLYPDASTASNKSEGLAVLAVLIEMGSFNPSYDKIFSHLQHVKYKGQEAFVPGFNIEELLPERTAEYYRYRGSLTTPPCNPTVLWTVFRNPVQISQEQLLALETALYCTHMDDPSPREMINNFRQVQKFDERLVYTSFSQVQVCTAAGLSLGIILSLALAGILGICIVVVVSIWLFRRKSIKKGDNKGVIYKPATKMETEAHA
Description: as §1

α-amylase = test system: α-amylase; design: method as in PMID 26395057; settings: cited from earlier work
[1] = test system: Z mutant (Glu342Lys) of α1-antitrypsin; design: method as in PMID 17918823; settings: cited from earlier work
bacterial DNA gyrase B = test system: bacterial DNA gyrase B; design: method as in PMID 20045642; settings: cited from earlier work

hCA I, sequence (P00915 whole entry): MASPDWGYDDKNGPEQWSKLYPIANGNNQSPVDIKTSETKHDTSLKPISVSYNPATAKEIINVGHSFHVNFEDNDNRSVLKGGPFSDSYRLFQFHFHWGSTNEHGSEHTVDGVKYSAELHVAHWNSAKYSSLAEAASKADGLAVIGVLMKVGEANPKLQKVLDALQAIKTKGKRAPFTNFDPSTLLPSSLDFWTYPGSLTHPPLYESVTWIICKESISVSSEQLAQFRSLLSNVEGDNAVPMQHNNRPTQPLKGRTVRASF

Row | Ki (hCA I) | experimental activity class hCA I (hCA I) | Ki (hCA II) | experimental activity class hCA II (hCA II) | Ki (hCA IX) | experimental activity class hCA IX (hCA IX) | Ki (hCA XII) | experimental activity class hCA XII (hCA XII) | selectivity for hCA II over hCA I (hCA II; hCA II vs hCA I) | Compound | inhibitory activity against α-amylase (α-amylase) | effect on rate of polymerization of Z α1-antitrypsin [1] | bacterial DNA gyrase B inhibition (bacterial DNA gyrase B)
1 | 31600 nM | Inactive | > 100000 nM | Inactive | > 100000 nM | Inactive | > 100000 nM | Inactive |  | O=S(=O)(Nc1cccc(C(F)(F)F)c1)c1cc(Cl)ccc1Cl [Compound 10] |  |  | 
2 | 666 nM | Active | 16.4 nM | Active | 73.7 nM | Active | 49.4 nM | Active |  | CCOc1ccccc1C(=O)Nc1nc2ccc(S(N)(=O)=O)cc2s1 [Compound 11] |  |  | 

The remaining lines, values behind:

Row | Compound | Ki (hCA I) | experimental activity class hCA I (hCA I) | Ki (hCA II) | experimental activity class hCA II (hCA II) | Ki (hCA IX) | experimental activity class hCA IX (hCA IX) | Ki (hCA XII) | experimental activity class hCA XII (hCA XII) | selectivity for hCA II over hCA I (hCA II; hCA II vs hCA I) | inhibitory activity against α-amylase (α-amylase) | effect on rate of polymerization of Z α1-antitrypsin [1] | bacterial DNA gyrase B inhibition (bacterial DNA gyrase B)
3 | NS(=O)(=O)c1ccc(CCNC(=O)C/C=C2/NC(=O)c3c(sc4c3CCCC4)N2)cc1 [Compound 2] | 1020 nM | Inactive | 11.6 nM | Active | 713 nM | Active | 30.6 nM | Active |  |  |  | 
4 | O=C(Nn1cnnc1)c1cccc(S(=O)(=O)Nc2cc(C(F)(F)F)ccc2Cl)c1 [Compound 3] | > 100000 nM | Inactive | > 100000 nM | Inactive | > 100000 nM | Inactive | > 100000 nM | Inactive |  |  |  | 
5 | NS(=O)(=O)c1ccc(OCCn2ccnc2)cc1 [Compound 4] | 36.2 nM | Active | 6.8 nM | Active | 2520 nM | Inactive | 603 nM | Active | approximately five times more active |  |  | 
6 | NS(=O)(=O)c1ccc(Nc2nc(-c3ccc(O)cc3O)cs2)cc1 [Compound 12] | 1080 nM | Inactive | 151 nM | Active | 313 nM | Active | 648 nM | Active |  | promising inhibitory activity | reduce the rate of polymerization | inhibitor
